Article PMC10353390, “Biological and Structural Analyses of New Potent Allosteric Inhibitors of HIV-1 Integrase” (Antimicrobial Agents and Chemotherapy, 2023)
Like-named read-outs stand apart in the source and are kept apart here.

Legend:
NL4-3 HIV-1 strain = assay: Multiple-round infection assay in MT4 cells, NL4-3; type: cell-based
[1] = tested on: NL4-3 HIV-1 with INLAI-selected IN single point mutations; type: cell-based
[2] = tested on: HIV-1 strains resistant to INSTIs, NRTIs, NNRTIs or PIs; type: cell-based; conditions: for Fold change in EC50 relative to NL4-3, E92Q / Fold change in EC50 relative to NL4-3, G140S / Fold change in EC50 relative to NL4-3, G140S/Q148H / Fold change in EC50 relative to NL4-3, N155H / Fold change in EC50 relative to NL4-3, Q148H / Fold change in EC50 relative to NL4-3, Y143R / Fold change in EC50 relative to NL4-3, E92Q/N155H (pat.) / Fold change in EC50 relative to NL4-3, G140S/Q148H (pat.) / Fold change in EC50 relative to NL4-3, T97A/N155H (pat.): INSTI-resistant; for Fold change in EC50 relative to NL4-3, E92Q / Fold change in EC50 relative to NL4-3, G140S / Fold change in EC50 relative to NL4-3, G140S/Q148H / Fold change in EC50 relative to NL4-3, N155H / Fold change in EC50 relative to NL4-3, Q148H / Fold change in EC50 relative to NL4-3, Y143R / Fold change in EC50 relative to NL4-3, K103N/Y181C: NL4-3 background; for Fold change in EC50 relative to NL4-3, E92Q/N155H (pat.) / Fold change in EC50 relative to NL4-3, G140S/Q148H (pat.) / Fold change in EC50 relative to NL4-3, T97A/N155H (pat.): primary patient-derived strain; for Fold change in EC50 relative to NL4-3, NLAY351717: NRTI-resistant clone; for Fold change in EC50 relative to NL4-3, NLAY351753: NRTI/NNRTI-resistant clone; for Fold change in EC50 relative to NL4-3, K103N/Y181C: NRTI/NNRTIs group; for Fold change in EC50 relative to NL4-3, ARP-4595 / Fold change in EC50 relative to NL4-3, ARP-4596 / Fold change in EC50 relative to NL4-3, ARP-11801 / Fold change in EC50 relative to NL4-3, ARP-11803 / Fold change in EC50 relative to NL4-3, ARP-11807 / Fold change in EC50 relative to NL4-3, ARP-11808: PI-resistant virus
Method: To this end, we used both recombinant viruses constructed by introducing described drug resistance mutations into NL4-3 HIV-1 clone as well as drug-resistant clinical HIV-1 isolates.
(§1) MT4 cells growing exponentially at the density of 10^6/mL were infected with HIV-1 strain NL4-3 at a multiplicity of infection (MOI) of 0.001 for 2 h in the presence of different concentrations of compounds, and the CellTiter-Glo luminescent reagent (Promega) was used to quantify cell viability as described previously ([12]).

HXB2 HIV-1 strain = assay: Multiple-round infection assay in MT4 cells, HXB2; type: cell-based; conditions: Human immunodeficiency virus 1, HXB2, MT4, read-out: EC50 HXB2
Method: Antiretroviral activity of BDM-2 and its analogs was first evaluated in lymphoblastoid cell line MT4 and in primary human T lymphocytes using NL4-3 and HXB2 laboratory HIV-1 isolates.
as §1

[3] = tested on: VSV-G-pseudotyped NL4-3Δenv-luc; assay: microbe, parasite or virus in culture; type: cell-based, HIV-1; conditions: Human immunodeficiency virus 1, NL43, MT4, read-out: EC50 in single-round infection
[4] = Cytotoxicity assay in MT4 cells; type: cell-based; conditions: human, MT4 cells (proliferating human T-cell line), CellTiter-Glo
Description: Growth inhibition was monitored in a proliferating human T-cell line (MT4) with different concentrations of compounds, using the CellTiter-Glo luminescent reagent (Promega), as previously described ([12]).

[5] = tested on: lab-adapted and clinical HIV-1 isolates; assay: Infection assays in primary T CD4+ lymphocytes; type: cell-based; conditions: Human immunodeficiency virus 1, Lymphocyte

SMILES: COc1cc2c(cc1Cc1cccc(Cl)c1F)c(=O)c(C(=O)O)cn2[C@H](CO)C(C)C [EVG, elvitegravir]
- EC50 (NL4-3 HIV-1 strain; Human immunodeficiency virus 1, NL43, MT4, wild type NL4-3, Table 9, read-out: EC50 NL4-3): 2.2 ± 1.2 nM
- EC50 fold change compared to wild type NL4-3, A128T ([1]; NL4-3 IN A128T): 1
- EC50 fold change compared to wild type NL4-3, H171Q ([1]; NL4-3 IN H171Q): 1
- EC50 fold change compared to wild type NL4-3, N222K ([1]; NL4-3 IN N222K): 1
- EC50 fold change compared to wild type NL4-3, T174I ([1]; NL4-3 IN T174I): 1
- EC50 fold change compared to wild type NL4-3, Y99H ([1]; NL4-3 IN Y99H): 1
- Fold change in EC50 relative to NL4-3, E92Q [2]: 24
- Fold change in EC50 relative to NL4-3, G140S [2]: 2
- Fold change in EC50 relative to NL4-3, G140S/Q148H [2]: 2500
- Fold change in EC50 relative to NL4-3, N155H [2]: 12
- Fold change in EC50 relative to NL4-3, Q148H [2]: 3
- Fold change in EC50 relative to NL4-3, Y143R [2]: 2
- Fold change in EC50 relative to NL4-3, E92Q/N155H (pat.) [2]: 200
- Fold change in EC50 relative to NL4-3, G140S/Q148H (pat.) [2]: 2000
- Fold change in EC50 relative to NL4-3, T97A/N155H (pat.) [2]: 440
- Fold change in EC50 relative to NL4-3, NLAY351717 [2]: 1
- Fold change in EC50 relative to NL4-3, NLAY351753 [2]: 1
- Fold change in EC50 relative to NL4-3, K103N/Y181C [2]: 1
- Fold change in EC50 relative to NL4-3, ARP-4595 [2]: 1
- Fold change in EC50 relative to NL4-3, ARP-4596 [2]: 1
- Fold change in EC50 relative to NL4-3, ARP-11801 [2]: 1
- Fold change in EC50 relative to NL4-3, ARP-11803 [2]: 1
- Fold change in EC50 relative to NL4-3, ARP-11807 [2]: 2
- Fold change in EC50 relative to NL4-3, ARP-11808 [2]: 2

SMILES: CC(C)(C)NC(=O)[C@@H]1CN(Cc2cccnc2)CCN1C[C@@H](O)C[C@@H](Cc1ccccc1)C(=O)N[C@H]1c2ccccc2C[C@H]1O [IDV, indinavir]
- Fold change in EC50 relative to NL4-3, E92Q [2]: 1
- Fold change in EC50 relative to NL4-3, G140S/Q148H [2]: 1
- Fold change in EC50 relative to NL4-3, N155H [2]: 1
- Fold change in EC50 relative to NL4-3, Y143R [2]: 1
- Fold change in EC50 relative to NL4-3, NLAY351717 [2]: 1
- Fold change in EC50 relative to NL4-3, NLAY351753 [2]: 1
- Fold change in EC50 relative to NL4-3, K103N/Y181C [2]: 1
- Fold change in EC50 relative to NL4-3, ARP-4595 [2]: 5
- Fold change in EC50 relative to NL4-3, ARP-4596 [2]: 8
- Fold change in EC50 relative to NL4-3, ARP-11801 [2]: 92
- Fold change in EC50 relative to NL4-3, ARP-11803 [2]: 260
- Fold change in EC50 relative to NL4-3, ARP-11807 [2]: 36
- Fold change in EC50 relative to NL4-3, ARP-11808 [2]: 59

SMILES: Cc1nnc(C(=O)NC(C)(C)c2nc(C(=O)NCc3ccc(F)cc3)c(O)c(=O)n2C)o1 [RAL, raltegravir]
- EC50 (HXB2 HIV-1 strain): 8.7 ± 6 nM
- EC50 [3]: 3.5 ± 1 nM
- EC50 (NL4-3 HIV-1 strain; Human immunodeficiency virus 1, NL43, MT4, read-out: EC50 NL4-3): 14 ± 9 nM
- EC90 (NL4-3 HIV-1 strain; Human immunodeficiency virus 1, NL43, MT4, read-out: EC90 NL4-3): 28 ± 14 nM
- CC50 [4]: 438000 ± 29000 nM
- EC50 ([5]; read-out: EC50 33913N (B)): 2.1 ± 0.1 nM
- EC50 ([5]; read-out: EC50 HXB2 (B)): 2.6 ± 1.4 nM
- EC50 ([5]; read-out: EC50 KER2008 (A)): 6.7 ± 4 nM
- EC50 ([5]; read-out: EC50 NL4-3 (B)): 4.9 ± 2.3 nM
- EC50 ([5]; read-out: EC50 NP1525 (CRF01_AE)): 4 ± 1.7 nM
- EC50 ([5]; read-out: EC50 NP1538 (B)): 1.7 ± 1.9 nM

SMILES: Cc1cc(/C=C/C#N)cc(C)c1Nc1ccnc(Nc2ccc(C#N)cc2)n1 [RPV, rilpivirine]
- Fold change in EC50 relative to NL4-3, G140S [2]: 1
- Fold change in EC50 relative to NL4-3, G140S/Q148H [2]: 1
- Fold change in EC50 relative to NL4-3, Q148H [2]: 1
- Fold change in EC50 relative to NL4-3, E92Q/N155H (pat.) [2]: 1
- Fold change in EC50 relative to NL4-3, G140S/Q148H (pat.) [2]: 1
- Fold change in EC50 relative to NL4-3, T97A/N155H (pat.) [2]: 1
- Fold change in EC50 relative to NL4-3, NLAY351717 [2]: 1
- Fold change in EC50 relative to NL4-3, NLAY351753 [2]: 0.4
- Fold change in EC50 relative to NL4-3, K103N/Y181C [2]: 3
- Fold change in EC50 relative to NL4-3, ARP-4595 [2]: 1
- Fold change in EC50 relative to NL4-3, ARP-4596 [2]: 1
- Fold change in EC50 relative to NL4-3, ARP-11801 [2]: 0.4
- Fold change in EC50 relative to NL4-3, ARP-11803 [2]: 1
- Fold change in EC50 relative to NL4-3, ARP-11807 [2]: 1
- Fold change in EC50 relative to NL4-3, ARP-11808 [2]: 1
